This is an account of results in patent US7445909B2, “Method for detecting reactive metabolites using a combination of glutathione and a stable isotopic derivative of glutathione and mass spectroscopy-based pattern recognition” (Janssen Phamaceutica N.V., priority 2004, dated 2008).

Data set [1] concerns human microsomal proteins. As to the kind of experiment: Stable isotope (GSH/GSX) trapping of reactive metabolites in microsomal incubation, LC-MS/MS neutral loss scanning of 129 Da. The class given is in vitro ADME. The following applies: 10 μM test compound, 1 mg/mL human microsomal proteins, 1 mM GSH and GSX (1:1), NADPH generating system, 60 min, 37° C., pH 7.4. The protocol:
All microsomal incubations described herein were performed at 37° C. in a water bath. […] Alternatively, the reaction mixtures were subjected to liquid-liquid extractions to recover the metabolites from supernatants.
MS analyses were performed on a Micromass (Manchester, UK) Quattro Micro triple quadrupole mass spectrometer.
For complete profiling of reactive metabolites, samples were first subjected to chromatographic separations with an Agilent 1100 HPLC system with an auto-sampler (Agilent Technologies, Palo Alto, Calif.), and eluents were introduced to the Quattro Micro triple quadrupole mass spectrometer operated in the neutral loss scanning mode. An Agilent Zorbax SB C18 column (2.1×50 mm) was used for the chromatographic separation. […] At 7 min, the column was flushed with 95% acetonitrile for 2 min before re-equilibration at initial conditions. […] Data were processed using the Masslynx version 4.0 software from Micromass.

The subject of data set [2] is human microsomal proteins. As to the kind of experiment: Stable isotope (GSH/GSX) trapping of reactive metabolites in microsomal incubation, FIA-MS/MS neutral loss scanning of 129 Da. The following applies: 10 μM test compound, 1 mg/mL human microsomal proteins, 1 mM GSH and GSX (1:1), 60 min, 37° C.; flow injection FIA-MS/MS, analysis within 30 sec. The class given is in vitro ADME. The protocol:
All microsomal incubations described herein were performed at 37° C. in a water bath. The test compound (or drug candidate) was mixed with human microsomal proteins in 50 mM potassium phosphate buffer (pH 7.4) supplemented with GSH and GSX that were pre-mixed at an equal molar ratio of 1:1. Reaction mixtures were then warmed at 37° C. for 5 min. The reactions were initiated by the addition of a NADPH generating system to yield a final volume of 1000 μL. The final reaction mixtures contained 10 μM test compounds, 1 mg/mL microsomal proteins, 1 mM GSH and GSX, 1.3 mM NADP^+, 3.3 mM glucose-6-phosphate, 0.4 U/ml glucose-6-phosphate dehydrogenase, 3.3 mM magnesium chloride. After a 60 min incubation, the reactions were terminated by the addition of 150 μL of trichloroacetic acid (10%). The samples were centrifuged at 10,000 g for 15 min at 4° C. to pellet the precipitated protein, and the supernatants were subjected to solid-phase extractions. […]
For rapid screening of reactive metabolites (as described in Example 11), cleaned samples were directly injected to the mass spectrometer that was operated in the neutral scanning mode. […] After a glutathione conjugate was detected, CID MS/MS spectrum was subsequently acquired to determine the structure of the glutathione conjugate. […]

With `O=C(O)Cc1ccccc1Nc1c(Cl)cccc1Cl` [Diclofenac], in data set [1], the “detection of reactive metabolites (characteristic isotopic doublet of GSH/GSX adducts in neutral loss mass spectrum)” value was “two reactive metabolites were co-eluted”.

Take `NC(=O)OCC(COC(N)=O)c1ccccc1` [Felbamate]: the “detection of reactive metabolites (characteristic isotopic doublet of GSH/GSX adducts in neutral loss mass spectrum)” value in data set [1] is listed as “no reactive metabolites were formed”. Regarding `C[C@]12CC[C@@H]3c4ccc(O)c(O)c4CC[C@H]3[C@@H]1CCC2=O` [4-Hydroxyestrone], the “detection of reactive metabolite (characteristic isotopic doublet of GSH/GSX adducts in neutral loss mass spectrum)” value in data set [2] is “the reactive metabolite was detected”. Besides, the “detection of reactive metabolites (characteristic isotopic doublet of GSH/GSX adducts in neutral loss mass spectrum)” value in data set [1] is “only one component at a retention time of 5.11 min displayed characteristic doublet”.
